Results on 5 compounds are retold here after patent publication US4464388A, “Use of prostaglandin analogues to treat cytodamage” (priority 1982, dated 1984).

Data set [1] concerns carbon tetrachloride-induced liver cell necrosis. The note with it: Stachur et al; cited from earlier work.
Data set [2] has as its system acute galactosamine-induced liver damage. The note with it: Stachur et al; cited from earlier work.
The subject of data set [3] is diet-induced acute pancreatitis. As to conditions: mice; Manabe et al; cited from earlier work.
For a further data set, the system named is thrombus. As to conditions: cited from earlier work.
Data set [4] deals with blood platelet aggregation. The note with it: cited from earlier work.
The next data set is described as follows: Acute toxicity test. As to conditions: mouse, in vivo; oral, mice observed for 14 days. As for the experimental part:
Male JCL-ICR mice (non SPF mice) from 7 weeks of age were used. The compound under test was dissolved in 5% v/v ethanol containing 0.4% w/v Tween 80 (Tween is a registered trademark) and administered orally to the mice. […] The deaths observed were all within 72 hrs after treatment.

In data set [5] the test system is carbon tetrachloride (CCl4) induced liver damage. In words: Effect on carbon tetrachloride (CCl4) induced liver damage (liver cell necrosis type). The format is in vivo, Male Wistar rats. As to conditions: for inhibition in vivo at 0.02 mg/kg: Rattus norvegicus, sc, 24 h, s.c., 20 μg/kg. The protocol:
Effect on carbon tetrachloride (CCl4) induced liver damage (liver cell necrosis type)
Male Wistar rats weighing 180-220 g were used. Rats were dosed intraperitoneally with CCl4 dissolved in olive oil (5%, w/v) at a volume of 500 μl/kg after 18 hr starvation. The compound under test was administered orally (p.o.) or subcutaneously (s.c.) 6 and 12 hr after CCl4 injection in rats and blood was collected after 24 hr. Plasma glutamic oxaloacetic transaminase (GOT) and glutamic pyruvic transaminase (GPT) activities were determined by ultraviolet absorbance methods (optimised method based on the recommendations of the Deutsche Gesellschaft fur Klinische Chemie). The effects of the compounds tested were assessed by the inhibition rate in comparison with controls. Inhibition rate was calculated by the following formula. [formula] The results obtained are shown in the following Tables 1A and 1B for compounds of the general formula: [drawing 10] wherein R, R^1 and --X--Y--Z-- have the meanings indicated.
In Tables 1A, 1B and 2 to 5 hereinafter the dose shown in the amount given at each administration of the compound under test.

Data set [6] relates to α-naphthylisothiocyanate-induced liver damage. Description: Effect on α-naphthylisothiocyanate-induced liver damage (cholangioatresia type). The format is in vivo, Male Wistar rats. As to conditions: p.o., blood after 24 hr. The protocol: Effect on α-naphthylisothiocyanate-induced liver damage (cholangioatresia type)
Male Wistar rats weighing 190-220 g were used. After rats had fasted for 18 hr, α-naphthylisothiocyanate (ANIT) dissolved in olive oil (1.5% w/v) was given orally to them at 30 mg/kg body weight. The compound under test was administered orally 30 min before and 6 and 12 hr after administration of ANIT and blood was collected after 24 hr. Plasma GOT, GPT and bilirubin activities were determined and the results given in Table 5 show the inhibition rate compared with controls (calculation by the formula shown in Experiment 1).

The subject of data set [7] is p-acetoamidophenol-induced liver damage. Description: Effect on p-acetoamidophenol-induced liver damage (liver glutathione decrease type). It counts as in vivo, Male Wistar rats. The note with it: p.o., 50 μg/kg; blood after 24 hr. As for the experimental part: Effect on p-acetoamidophenol-induced liver damage (liver glutathione decrease type)
Male Wistar rats weighing 180-220 g were used. After the rats had fasted for 18 hr, p-acetoamidophenol (2.5 g/kg) was given orally to them. The compound under test was administered orally 30 min before and 6 and 12 hr after administration of p-acetoamidophenol and blood was collected after 24 hr. Plasma GOT and GPT activities were determined in the manner described in experiment 1 and the results given in Table 4 show the inhibition rate compared with controls (calculation by the formula shown in Experiment 1)

For data set [8], the system named is alcohol-induced acute liver damage. Description: Effect on alcohol-induced acute liver damage. The format is in vivo, Male Wistar rats. As to conditions: p.o., 50 μg/kg; blood after 24 hr. As for the experimental part: Effect on alcohol-induced acute liver damage
Male Wistar rats weighing 180-220 g were used. After the rats had fasted for 18 hr, 50% v/v ethanol solution was given orally to them at a volume of 12 ml/kg. The compound under test was administered orally 30 min before and 2 and 8 hr after administration of ethanol and blood was collected after 24 hr. Plasma GOT and GPT activities were determined in the manner described in Experiment 1. Effects were shown by the inhibition rate compared with controls (calculation by the formula shown in Experiment 1).

Data set [9] has as its system ethionine-induced acute pancreatitis. Description: Effect on ethionine-induced acute pancreatitis. It counts as in vivo, Male TCL-ICR mice. The note with it: s.c., 5 μg/kg. As for the experimental part: Effect on ethionine-induced acute pancreatitis
Male TCL-ICR mice from 4 weeks of age were used. After normal feeding the mice were given a choline-deficient diet (CD diet) for 2 days. Further after having fasted for 24 hr, they were given a choline-deficient diet containing 5% DL-ethionine (CDE diet) for 2 days, counted as days 1 and 2. The mice were then given the CD diet for 1 day and thereafter fed normally. Compound number 6 was administered subcutaneously to them at 5 μg/kg, twice daily, during the CDE diet on days 1 and 2, and then administered in the same manner once daily on days 3, 4 and 5. The effect of the compound under test on the survival rate at day 9 was determined. Further details of the test method appear in Gastroenterology, 78, 777 (1980).

The test system of data set [10] is D(+)-galactosamine hydrochloride-induced liver damage. Description: Effect on D(+)-galactosamine hydrochloride-induced liver damage (hepatitis type). It counts as in vivo, Male Wistar rats. As to conditions: p.o., 100 μg/kg. The protocol:
Effect on D(+)-galactosamine hydrochloride-induced liver damage (hepatitis type)
Male Wistar rats weighing 180-220 g were used. After the rats had fasted for 18 hr, 250 mg/kg galactosamine hydrochloride was administered to them intraperitoneally three times at 4 hr intervals. The compound under test was administered orally 6, 12, 18, 24, 30, 36, 42 and 48 hr after the dose of D(+)-galactosamine hydrochloride and blood was collected after 36, 48 and 54 hr. Plasma GOT and GPT activities were determined in the manner described in Experiment 1 and the effects were shown by the inhibition rate compared with controls (calculation by the formula shown in Experiment 1).

Data set [11] has as its system isolate perfused cat liver. The note with it: Araki et al; cited from earlier work.
Data set [12] deals with arachidonic acid-induced blood platelet aggregation. The note with it: human; cited from earlier work.
For a further data set, the system named is artery. As to conditions: cited from earlier work.
Data set [13] has as its system endotoxin-induced lung injury. As to conditions: sheep; Demling et al; cited from earlier work.
For another data set, the system named is endotoxin shock. As to conditions: dog; Fletcher et al; cited from earlier work.

Where two headings read alike, the source gives them in different places.

As to `CCCCC(C)(C)[C@H](O)/C=C/[C@H]1[C@H](O)CC(=O)[C@@H]1C/C=C\CCCC(=O)O` [16,16-dimethyl-PGE2], in data set [1], the “effect on carbon tetrachloride-induced liver cell necrosis” value was “prevents”. In data set [2], the “effect on acute galactosamine-induced liver damage” value was “prevents”.

Take `CCCCC[C@H](O)/C=C/[C@H]1[C@H](O)CC(=O)[C@@H]1C/C=C\CCCC(=O)O` [PGE2]: the “effect against diet-induced acute pancreatitis” value in data set [3] was “effective”.

Turning to `CCCCC[C@H](O)/C=C/[C@H]1[C@H](O)CC(=O)[C@@H]1CCCCCCC(=O)O` [PGE1, Prostaglandin E1], in the data set on thrombus, the effect on thrombus entry was “removes the thrombus and prevents thrombosis”. The “effect on blood platelet aggregation” value in data set [4] is reported as “inhibits”.

`CCCC1CCC([C@H](O)/C=C/[C@H]2[C@H](O)CC(=O)[C@@H]2CC(=O)CCCCC(=O)OC)C1` (single isomer, unassigned) [Compound 6, 15-(3-Propylcyclopentyl)-16,17,18,19,20-pentanor-6-oxo-PGE1 methyl ester]: in the data set “Acute toxicity test”, the LD50 (commonly the dose at which mortality reaches 50%) at 336 h was 10 to 20 mg/kg. Besides, the inhibition in vivo at 0.02 mg/kg in data set [5] (plasma GOT after 24 hr, read-out: inhibition rate GOT) was 54.1%. In addition, the inhibition in vivo at 0.02 mg/kg in data set [5] (plasma GPT after 24 hr, read-out: inhibition rate GPT) worked out at 43.2%. Also, the “inhibition rate GOT” value in data set [5] (p.o., 100 μg/kg, plasma GOT after 24 hr) came to 71.3%. The “inhibition rate GPT” value in data set [5] (p.o., 100 μg/kg, plasma GPT after 24 hr) was 67.5%. Further, in [6] (20 μg/kg), the “inhibition GOT” value was found to be 14.6%, the “inhibition GPT” value stood at 5.4% and the inhibition bilirubin is 18.2%. In data set [6] (50 μg/kg), the “inhibition GOT” value is 44.6%, the “inhibition GPT” value is listed as 49.8% and the inhibition bilirubin is reported as 24.9%. Besides, in data set [6] (100 μg/kg), the “inhibition GOT” value is reported as 67.8%, the “inhibition GPT” value came to 63.6% and the inhibition bilirubin is 50.5%. In addition, in [7], the “inhibition GOT” value is 33.2% and the “inhibition GPT” value worked out at 60.4%. For the same compound, in data set [8], the “inhibition rate GOT” value is 24.5% and the “inhibition rate GPT” value is 35.8%. Besides, the “protection against death at day 9 from CDE diet” value in data set [9] is on record as “significant protection against death”. In addition, in [9] (twice daily days 1-2, once daily days 3-5, untreated control 12 of 16 dead), the “treated mice dead at day 9” value is given as 3 of 16. In addition, in data set [10] (36 hr), the “inhibition rates GOT 36 hr after” value worked out at 37.2% and the “inhibition rates GPT 36 hr after” value stood at 29.4%. Also, in [10] (48 hr), the “inhibition rates GOT 48 hr after” value is 46.3% and the “inhibition rates GPT 48 hr after” value was 38.2%. In data set [10] (54 hr), the “inhibition rates GOT 54 hr after” value stood at 39.1% and the “inhibition rates GPT 54 hr after” value came to 39.1%.

On to `CCCCC[C@H](O)/C=C/[C@@H]1[C@H]2C/C(=C/CCCC(=O)O)O[C@H]2C[C@H]1O` [PGI2, (5Z,13E)-(9α,11α,15S)-6,9-epoxy-11, 15-dihydroxyprosta-5,13-dienoic acid], for which the “effect on hypoxia in the isolate perfused liver” value in [11] was “prevents and is useful in treating”. In addition, the “effect on arachidonic acid-induced blood platelet aggregation” value in data set [12] is “strongly inhibits”. For the same compound, the “activity on the artery” value in the data set on artery is “relaxing activity”. The “effect on endotoxin-induced lung injury” value in data set [13] was “prevents and is useful in treating”. Also, the “effect on endotoxin shock” value with endotoxin shock was “prevents and is useful in treating”.
